The values below come from ChEMBL document CHEMBL5316298, “Discovery of Amphiphilic Xanthohumol Derivatives as Membrane-Targeting Antimicrobials against Methicillin-Resistant Staphylococcus aureus” (J Med Chem, 2023).

For series [1], the system named is Staphylococcus aureus. As to the kind of experiment: Antibacterial activity against Staphylococcus aureus ATCC 29213 incubated for 16 to 18 hrs by CLSI-based microbroth dilution method. It counts as functional. Conditions: time 16-18 hrs. Background: Broth dilution looks for growth in wells or tubes with falling amounts of substance.
Series [2] relates to Staphylococcus aureus. As to the kind of experiment: Antibacterial activity against methicillin-resistant Staphylococcus aureus clinical isolate 1 incubated for 16 to 18 hrs by CLSI-based microbroth dilution method. As to conditions: time 16-18 hrs. It counts as functional.
Series [3] has as its system Staphylococcus aureus. In words: Antibacterial activity against methicillin-resistant Staphylococcus aureus clinical isolate 2 incubated for 16 to 18 hrs by CLSI-based microbroth dilution method. It counts as functional. Conditions: time 16-18 hrs.
For series [4], the system named is Staphylococcus aureus. In words: Antibacterial activity against methicillin-resistant Staphylococcus aureus clinical isolate 3 incubated for 16 to 18 hrs by CLSI-based microbroth dilution method. It counts as functional. As to conditions: time 16-18 hrs.
Series [5] concerns Staphylococcus aureus. As to the kind of experiment: Antibacterial activity against methicillin-resistant Staphylococcus aureus clinical isolate 4 incubated for 16 to 18 hrs by CLSI-based microbroth dilution method. Conditions: time 16-18 hrs. Format: functional.
In series [6] the test system is Staphylococcus aureus. As to the kind of experiment: Antibacterial activity against methicillin-resistant Staphylococcus aureus clinical isolate 5 incubated for 16 to 18 hrs by CLSI-based microbroth dilution method. It counts as functional. Conditions: time 16-18 hrs.
Series [7] has as its system Staphylococcus aureus. As to the kind of experiment: Antibacterial activity against methicillin-resistant Staphylococcus aureus clinical isolate 6 incubated for 16 to 18 hrs by CLSI-based microbroth dilution method. Format: functional. Conditions: time 16-18 hrs.
For series [8], the system named is Staphylococcus aureus. As to the kind of experiment: Antibacterial activity against methicillin-resistant Staphylococcus aureus clinical isolate 7 incubated for 16 to 18 hrs by CLSI-based microbroth dilution method. It counts as functional. As to conditions: time 16-18 hrs.
The subject of series [9] is Staphylococcus aureus. As to the kind of experiment: Antibacterial activity against methicillin-resistant Staphylococcus aureus clinical isolate 8 incubated for 16 to 18 hrs by CLSI-based microbroth dilution method. Format: functional. Conditions: time 16-18 hrs.
Series [10] has as its system Staphylococcus aureus. As to the kind of experiment: Antibacterial activity against methicillin-resistant Staphylococcus aureus clinical isolate 9 incubated for 16 to 18 hrs by CLSI-based microbroth dilution method. As to conditions: time 16-18 hrs. It counts as functional.
The subject of series [11] is Staphylococcus aureus. In words: Antibacterial activity against methicillin-resistant Staphylococcus aureus clinical isolate 10 incubated for 16 to 18 hrs by CLSI-based microbroth dilution method. Format: functional. Conditions: time 16-18 hrs.
A short description of series [12]: Hemolytic activity in sheep erythrocytes incubated for 1 hr by absorbance based analysis. Format: toxicity, cell-based, Ovis aries, Erythrocyte.
Series [13] relates to Staphylococcus aureus. In words: Antibacterial activity against Staphylococcus aureus ATCC 29213 assessed as inhibition of bacterial growth by CLSI based microdilution broth assay. Format: functional.
The subject of series [14] is Staphylococcus aureus. In words: Antibacterial activity against Staphylococcus aureus D5 assessed as inhibition of bacterial growth by CLSI based microdilution broth assay. Format: functional.
Series [15] concerns Staphylococcus aureus. As to the kind of experiment: Antibacterial activity against Staphylococcus aureus A7 assessed as inhibition of bacterial growth by CLSI based microdilution broth assay. It counts as functional.
The subject of series [16] is Staphylococcus aureus. As to the kind of experiment: Induction of drug resistance in Staphylococcus aureus ATCC 29213 assessed as fold increase in MIC at 0.5 times MIC measured for 20 passages relative to control. Format: functional.
Series [17] deals with Staphylococcus aureus. As to the kind of experiment: Antibacterial activity against methicillin-resistant Staphylococcus aureus 3 infected in KM mouse assessed as reduction in inflammatory cells in subcutaneous tissue at 5 mg/kg administered into skin infection site measured after 24 hrs by H and E staining based analysis. Format: functional, organism-based.
Series [18] deals with Staphylococcus aureus. As to the kind of experiment: Antibacterial activity against methicillin-resistant Staphylococcus aureus 3 infected in KM mouse assessed as reduction in bacterial load at infection site at 5 mg/kg administered into skin infection site measured after 24 hrs relative to control. It counts as functional. Set-up: scale not given: the % may be the effect or the level left.

Series [19] has as its system Staphylococcus aureus. As to the kind of experiment: Antibacterial activity against methicillin-resistant Staphylococcus aureus 3 infected in KM mouse assessed as reduction in bacterial load at infection site by measuring colony forming units at 5 mg/kg administered into skin infection site measured after 24 hrs. It counts as functional.
The subject of series [20] is Staphylococcus aureus. In words: Antibacterial activity against methicillin-resistant Staphylococcus aureus 3 infected in KM mouse assessed as reduction in abscesses on dorsal surface of skin at 5 mg/kg administered into skin infection site measured after 24 hrs. Format: functional, organism-based.
Series [21] deals with Staphylococcus aureus. In words: Antibacterial activity against methicillin-resistant Staphylococcus aureus 3 infected in KM mouse assessed as reduction in abscesses inside the skin at 5 mg/kg administered into skin infection site measured after 24 hrs. It counts as functional, organism-based.
Series [22] deals with Staphylococcus aureus. As to the kind of experiment: Antibacterial activity against methicillin-resistant Staphylococcus aureus 3 infected in KM mouse assessed as reduction in size of abscesses at 5 mg/kg administered into skin infection site measured after 24 hrs. Format: functional, organism-based.
Series [23] in a line: Toxicity in KM mouse infected with methicillin-resistant Staphylococcus aureus 3 assessed as heart damage at 5 mg/kg administered into skin infection site measured after 24 hrs by H and E staining based analysis. It counts as organism-based. Conditions: in vivo, topical_or_ocular.
Series [24] can be described thus: Toxicity in KM mouse infected with methicillin-resistant Staphylococcus aureus 3 assessed as liver damage at 5 mg/kg administered into skin infection site measured after 24 hrs by H and E staining based analysis. Format: organism-based. As to conditions: in vivo, topical_or_ocular.
Series [25] in a line: Toxicity in KM mouse infected with methicillin-resistant Staphylococcus aureus 3 assessed as spleen damage at 5 mg/kg administered into skin infection site measured after 24 hrs by H and E staining based analysis. Conditions: in vivo, topical_or_ocular. Format: organism-based.
The nature of series [26]: Toxicity in KM mouse infected with methicillin-resistant Staphylococcus aureus 3 assessed as lung damage at 5 mg/kg administered into skin infection site measured after 24 hrs by H and E staining based analysis. Format: organism-based. Conditions: in vivo, topical_or_ocular.
A short description of series [27]: Toxicity in KM mouse infected with methicillin-resistant Staphylococcus aureus 3 assessed as kidneys damage at 5 mg/kg administered into skin infection site measured after 24 hrs by H and E staining based analysis. Format: organism-based. As to conditions: in vivo, topical_or_ocular.
Series [28] is described as follows: Toxicity in KM mouse infected with methicillin-resistant Staphylococcus aureus 3 assessed as histopathological abnormalities in heart at 5 mg/kg administered into skin infection site measured after 24 hrs by H and E staining based analysis. Conditions: in vivo, topical_or_ocular. Format: organism-based.
A short description of series [29]: Toxicity in KM mouse infected with methicillin-resistant Staphylococcus aureus 3 assessed as histopathological abnormalities in spleen at 5 mg/kg administered into skin infection site measured after 24 hrs by H and E staining based analysis. It counts as organism-based. As to conditions: in vivo, topical_or_ocular.
Series [30] is described as follows: Toxicity in KM mouse infected with methicillin-resistant Staphylococcus aureus 3 assessed as histopathological abnormalities in lungs at 5 mg/kg administered into skin infection site measured after 24 hrs by H and E staining based analysis. It counts as organism-based. Conditions: in vivo, topical_or_ocular.
The nature of series [31]: Toxicity in KM mouse infected with methicillin-resistant Staphylococcus aureus 3 assessed as multifocal enlargement of hepatocytes with cytoplasmic foamy swelling at 5 mg/kg administered into skin infection site measured after 24 hrs by H and E staining based analysis. It counts as organism-based. Conditions: in vivo, topical_or_ocular.
A short description of series [32]: Toxicity in KM mouse infected with methicillin-resistant Staphylococcus aureus 3 assessed as swelling of renal tubular epithelial cells with granular degeneration at 5 mg/kg administered into skin infection site measured after 24 hrs by H and E staining based analysis. It counts as organism-based. Conditions: in vivo, topical_or_ocular.
Series [33] in a line: Toxicity in KM mouse infected with methicillin-resistant Staphylococcus aureus 3 assessed as vacuolar degeneration in the kidneys at 5 mg/kg administered into skin infection site measured after 24 hrs by H and E staining based analysis. It counts as organism-based. As to conditions: in vivo, topical_or_ocular.
For series [34], the system named is Cell membrane. As to the kind of experiment: Induction of membrane depolarization in methicillin-resistant Staphylococcus aureus 3 assessed as increase in fluorescence intensity at 32 ug/ml measured every 2 mins for 20 mins by SYTOX-green dye based fluorescence assay. Conditions: dose 32.0 µg/ml. It counts as subcellular.

Molecules are shown by their SMILES. In brackets after ≈: the same amount, converted by molar mass. Activity calls are given as the source filed them.

For the compound `COc1cc(O)c(CC=C(C)C)c(O)c1C(=O)/C=C/c1ccc(O)cc1` [XANTHOHUMOL], the MIC (as a rule, the smallest concentration in the dilution series that meets the test's criterion for growth inhibition) was 16 µg/mL (≈ 45.1 µM) in series [1]; 8 µg/mL (≈ 22.6 µM) in series [2]; 8 µg/mL (≈ 22.6 µM) in series [3]; 8 µg/mL (≈ 22.6 µM) in series [4]; 4 µg/mL (≈ 11.3 µM) in series [5]; 8 µg/mL (≈ 22.6 µM) in [6]. The MIC in series [7] was 16 µg/mL (≈ 45.1 µM); in series [8], 8 µg/mL (≈ 22.6 µM); in [9], 8 µg/mL (≈ 22.6 µM); in series [10], 8 µg/mL (≈ 22.6 µM); in series [11], 8 µg/mL (≈ 22.6 µM); in [13], 15.6 µg/mL (≈ 44 µM). The MIC in series [14] and in series [15] was 15.6 µg/mL (≈ 44 µM) each time. Moreover, in series [12], the HC50 (usually the concentration giving 50% haemolysis) at 1 h came out at 196 µg/mL.

Regarding `CCn1cc(C(=O)O)c(=O)c2cc(F)c(N3CCNCC3)cc21`, in [16], the fold change (FC) came out at 128.

In the case of `CN[C@H](CC(C)C)C(=O)N[C@H]1C(=O)N[C@@H](CC(N)=O)C(=O)N[C@H]2C(=O)N[C@H]3C(=O)N[C@H](C(=O)N[C@H](C(=O)O)c4cc(O)cc(O)c4-c4cc3ccc4O)[C@H](O)c3ccc(c(Cl)c3)Oc3cc2cc(c3O[C@@H]2O[C@H](CO)[C@@H](O)[C@H](O)[C@H]2O[C@H]2C[C@](C)(N)[C@H](O)[C@H](C)O2)Oc2ccc(cc2Cl)[C@H]1O` [VANCOMYCIN], the outcome in [17] and in series [22] was Active. The Activity in series [18] is 99.479%; in [19], 2.2 log10CFU/g; in series [23], “Non-Toxic”; in [24], “Non-Toxic”; in [25], “Non-Toxic”; in series [26], “Non-Toxic”. For the same compound, the Activity result in [27], in [28], in series [29], in series [30], in series [31] and in series [32] was “Non-Toxic” in each case. Further, the Activity result in [33] is “Non-Toxic”. The outcome in [20] and in [21] was inactive.

For the compound `CC[C@H](C)[C@H](NC(=O)CN)C(=O)NCC(=O)N[C@@H](C)C(=O)N[C@H](C(=O)N[C@@H](CC(C)C)C(=O)N[C@@H](CCCCN)C(=O)N[C@H](C(=O)N[C@@H](CC(C)C)C(=O)N[C@H](C(=O)N[C@H](C(=O)NCC(=O)N[C@@H](CC(C)C)C(=O)N1CCC[C@H]1C(=O)N[C@@H](C)C(=O)N[C@@H](CC(C)C)C(=O)N[C@H](C(=O)N[C@@H](CO)C(=O)N[C@@H](Cc1c[nH]c2ccccc12)C(=O)N[C@H](C(=O)N[C@@H](CCCCN)C(=O)N[C@@H](CCCNC(=N)N)C(=O)N[C@@H](CCCCN)C(=O)N[C@@H](CCCNC(=N)N)C(=O)N[C@@H](CCC(N)=O)C(=O)N[C@@H](CCC(N)=O)C(N)=O)[C@@H](C)CC)[C@@H](C)CC)[C@@H](C)O)[C@@H](C)O)C(C)C)C(C)C`, the outcome in series [34] was Active.

In the case of `CCCN(CCC)C(=O)C[N+](C)(C)CCCCCOc1ccc(/C=C/C(=O)c2c(OC)cc3c(c2O)C=CC(C)(C)O3)cc1.[Br-]`, the MIC in series [1] is 2 µg/mL; in series [2], 4 µg/mL; in [3], 4 µg/mL; in [4] it was 2 µg/mL; in series [5], 2 µg/mL; in series [6] it was 2 µg/mL. Also, the MIC in series [7] came out at 1 µg/mL; in series [8], 2 µg/mL; in [9] it was 2 µg/mL; in series [10], 1 µg/mL; in series [11] it was 2 µg/mL. The HC50 at 1 h in series [12] was determined as 436 µg/mL.

In the case of `COc1cc2c(c(O)c1C(=O)/C=C/c1ccc(OCCCCC[N+](C)(C)CC(=O)N(CC(C)C)CC(C)C)cc1)C=CC(C)(C)O2.[Br-]`, the MIC in series [1] is 2 µg/mL; in series [2], 4 µg/mL; in [3], 1 µg/mL; in series [4] it was 2 µg/mL; in series [5], 2 µg/mL; in series [6], 2 µg/mL. Further, the MIC in series [7] amounted to 1 µg/mL; in series [8], 2 µg/mL; in series [9], 2 µg/mL; in series [10], 2 µg/mL; in series [11] it was 2 µg/mL. Also, the 50% haemolytic concentration (HC50) at 1 h in series [12] was found to be 374 µg/mL.
